Assay results published in ChEMBL document CHEMBL1141974, “Inclusion complexes of N-sulfamoyloxazolidinones with beta-cyclodextrin” (Bioorg Med Chem Lett, 2005).

Key:
[1] = Partition coefficient (logP) (beta-cyclodextrin complex); format: physicochemical; settings: octanol/water
[2] = Relative hydrophobicity enhancement value obtained via beta-cyclodextrin complexation; format: ADME
[3] = Partition coefficient (logP); format: physicochemical; settings: octanol/water

Compound | logP [1] | delta Log P [2] | logP [3]
O=C1OCCN1S(=O)(=O)Nc1ccc(Cl)cc1 | 0.46 | 0.8 | 1.26
O=C1OCCN1S(=O)(=O)Nc1ccc([N+](=O)[O-])cc1 | -0.35 | 0.9 | 0.55
Cc1ccc(NS(=O)(=O)N2CCOC2=O)cc1 | 0.1 | 1.01 | 1.12
O=C1OCCN1S(=O)(=O)Nc1ccccc1 | -0.2 | 0.85 | 0.65
COc1ccc(NS(=O)(=O)N2CCOC2=O)cc1 | -0.17 | 0.94 | 0.77
CN(c1ccccc1)S(=O)(=O)N1CCOC1=O | -0.22 | 0.78 | 0.56
